From patent US6358885B1, “Substituted phenylheterocyclic herbicides” (Mississippi State University, priority 1992, dated 2002)

Legend:
Assay in all cases: Test B preemergence/postemergence greenhouse plant response rating 0 to 10
purple nutsedge = format: in vivo, Cyperus rotundus; conditions: for Plant response rating, Nutsedge: 0 to 10 scale
In short: (§1)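 Postemergence treatment of plants two to eighteen cm tall ran alongside preemergence treatment of planted seed, each using compound in a non-phytotoxic solvent.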

cheatgrass = format: in vivo, Bromus secalinus; conditions: for Plant response rating, Cheatgrass: 0 to 10 scale
In short: as §1

soybean = format: in vivo, Glycine max; conditions: for Plant response rating, Soybean: 0 to 10 scale
In short: as §1

sugar beet = format: in vivo, Beta vulgaris; conditions: for Plant response rating, Sugar beet: 0 to 10 scale
In short: as §1

cocklebur = format: in vivo, Xanthium pensylvanicum; conditions: for Plant response rating, Cocklebur: 0 to 10 scale
In short: as §1

sorghum = format: in vivo, Sorghum bicolor; conditions: for Plant response rating, Sorghum: 0 to 10 scale
In short: as §1

cotton = format: in vivo, Gossypium hirsutum; conditions: for Plant response rating, Cotton: 0 to 10 scale
In short: as §1

crabgrass = format: in vivo, Digitaria spp.; conditions: for Plant response rating, Crabgrass: 0 to 10 scale
In short: as §1

barley = format: in vivo, Hordeum vulgare; conditions: for Plant response rating, Barley: 0 to 10 scale
In short: as §1

wild oat = format: in vivo, Avena fatua; conditions: for Plant response rating, Wild oat: 0 to 10 scale
In short: as §1

bedstraw = format: in vivo, Galium aparine; conditions: for Plant response rating, Bedstraw: 0 to 10 scale
In short: as §1

morningglory = format: in vivo, Ipomoea hederacea; conditions: for Plant response rating, Morningglory: 0 to 10 scale
In short: as §1

wheat = format: in vivo, Triticum aestivum; conditions: for Plant response rating, Wheat: 0 to 10 scale
In short: as §1

velvetleaf = format: in vivo, Abutilon theophrasti; conditions: for Plant response rating, Velvetleaf: 0 to 10 scale
In short: as §1

rice = format: in vivo, Oryza sativa; conditions: for Plant response rating, Rice: 0 to 10 scale
In short: as §1

rape = format: in vivo, Brassica napus; conditions: for Plant response rating, Rape: 0 to 10 scale
In short: as §1

wild buckwheat = format: in vivo, Polygonum convolvulus; conditions: for Plant response rating, Wild buckwheat: 0 to 10 scale
In short: as §1

corn = format: in vivo, Zea mays; conditions: for Plant response rating, Corn: 0 to 10 scale
In short: as §1

barnyardgrass = format: in vivo, Echinochloa crus-galli; conditions: for Plant response rating, Barnyardgrass: 0 to 10 scale
In short: as §1

giant foxtail = format: in vivo, Setaria faberii; conditions: for Plant response rating, Giant foxtail: 0 to 10 scale
In short: as §1

blackgrass = format: in vivo, Alopecurus myosuroides; conditions: for Plant response rating, Blackgrass: POSTEMERGENCE, 0 to 10 scale
In short: as §1

lambsquarters = format: in vivo, Chenopodium album; conditions: for Plant response rating, Lambsquarter: 0 to 10 scale
In short: as §1

chickweed = format: in vivo, Stellaria media; conditions: for Plant response rating, Chickweed: 0 to 10 scale
In short: as §1

## Clc1cc(Cl)c(-c2nn3c(c2Cl)CCCC3)cc1OCC1CC1 [Compound 69]
Purple nutsedge; POSTEMERGENCE, Rate 50 g/ha
  Plant response rating, Nutsedge: 2
Purple nutsedge; PREEMERGENCE, Rate 50 g/ha
  Plant response rating, Nutsedge: 0
Purple nutsedge; PREEMERGENCE, Rate 200 g/ha
  Plant response rating (0 to 10 scale), Nutsedge: 0
Purple nutsedge; Rate 200 g/ha, POSTEMERGENCE
  Plant response rating, Nutsedge: 2
cheatgrass; POSTEMERGENCE, Rate 50 g/ha
  Plant response rating, Cheatgrass: 3
cheatgrass; PREEMERGENCE, Rate 50 g/ha
  Plant response rating, Cheatgrass: 0
cheatgrass; PREEMERGENCE, Rate 200 g/ha
  Plant response rating (0 to 10 scale), Cheatgrass: 4
cheatgrass; Rate 200 g/ha, POSTEMERGENCE
  Plant response rating, Cheatgrass: 6
soybean; POSTEMERGENCE, Rate 50 g/ha
  Plant response rating, Soybean: 2
soybean; PREEMERGENCE, Rate 50 g/ha
  Plant response rating, Soybean: 0
soybean; PREEMERGENCE, Rate 200 g/ha
  Plant response rating (0 to 10 scale), Soybean: 0
soybean; Rate 200 g/ha, POSTEMERGENCE
  Plant response rating, Soybean: 5
Sugar beet; POSTEMERGENCE, Rate 50 g/ha
  Plant response rating, Sugar beet: 10
Sugar beet; PREEMERGENCE, Rate 50 g/ha
  Plant response rating, Sugar beet: 3
Sugar beet; PREEMERGENCE, Rate 200 g/ha
  Plant response rating (0 to 10 scale), Sugar beet: 6
Sugar beet; Rate 200 g/ha, POSTEMERGENCE
  Plant response rating, Sugar beet: 9
cocklebur; POSTEMERGENCE, Rate 50 g/ha
  Plant response rating, Cocklebur: 8
cocklebur; PREEMERGENCE, Rate 50 g/ha
  Plant response rating, Cocklebur: 0
cocklebur; PREEMERGENCE, Rate 200 g/ha
  Plant response rating (0 to 10 scale), Cocklebur: 0
cocklebur; Rate 200 g/ha, POSTEMERGENCE
  Plant response rating, Cocklebur: 8
sorghum; POSTEMERGENCE, Rate 50 g/ha
  Plant response rating, Sorghum: 4
sorghum; PREEMERGENCE, Rate 50 g/ha
  Plant response rating, Sorghum: 0
sorghum; PREEMERGENCE, Rate 200 g/ha
  Plant response rating (0 to 10 scale), Sorghum: 0
sorghum; Rate 200 g/ha, POSTEMERGENCE
  Plant response rating, Sorghum: 6
cotton; POSTEMERGENCE, Rate 50 g/ha
  Plant response rating, Cotton: 10
cotton; PREEMERGENCE, Rate 50 g/ha
  Plant response rating, Cotton: 0
cotton; PREEMERGENCE, Rate 200 g/ha
  Plant response rating (0 to 10 scale), Cotton: 0
cotton; Rate 200 g/ha, POSTEMERGENCE
  Plant response rating, Cotton: 10
crabgrass; POSTEMERGENCE, Rate 50 g/ha
  Plant response rating, Crabgrass: 4
crabgrass; PREEMERGENCE, Rate 50 g/ha
  Plant response rating, Crabgrass: 2
crabgrass; PREEMERGENCE, Rate 200 g/ha
  Plant response rating (0 to 10 scale), Crabgrass: 5
crabgrass; Rate 200 g/ha, POSTEMERGENCE
  Plant response rating, Crabgrass: 4
barley; POSTEMERGENCE, Rate 50 g/ha
  Plant response rating, Barley: 4
barley; PREEMERGENCE, Rate 50 g/ha
  Plant response rating, Barley: 0
barley; PREEMERGENCE, Rate 200 g/ha
  Plant response rating (0 to 10 scale), Barley: 0
barley; Rate 200 g/ha, POSTEMERGENCE
  Plant response rating, Barley: 4
Wild oat; POSTEMERGENCE, Rate 50 g/ha
  Plant response rating, Wild oat: 3
Wild oat; PREEMERGENCE, Rate 50 g/ha
  Plant response rating, Wild oat: 0
Wild oat; PREEMERGENCE, Rate 200 g/ha
  Plant response rating (0 to 10 scale), Wild oat: 0
Wild oat; Rate 200 g/ha, POSTEMERGENCE
  Plant response rating, Wild oat: 4
bedstraw; POSTEMERGENCE, Rate 50 g/ha
  Plant response rating, Bedstraw: 5
bedstraw; PREEMERGENCE, Rate 50 g/ha
  Plant response rating, Bedstraw: 0
bedstraw; PREEMERGENCE, Rate 200 g/ha
  Plant response rating (0 to 10 scale), Bedstraw: 6
bedstraw; Rate 200 g/ha, POSTEMERGENCE
  Plant response rating, Bedstraw: 7
morningglory; POSTEMERGENCE, Rate 50 g/ha
  Plant response rating, Morningglory: 7
morningglory; PREEMERGENCE, Rate 50 g/ha
  Plant response rating, Morningglory: 0
morningglory; PREEMERGENCE, Rate 200 g/ha
  Plant response rating (0 to 10 scale), Morningglory: 0
morningglory; Rate 200 g/ha, POSTEMERGENCE
  Plant response rating, Morningglory: 7
wheat; POSTEMERGENCE, Rate 50 g/ha
  Plant response rating, Wheat: 4
wheat; PREEMERGENCE, Rate 50 g/ha
  Plant response rating, Wheat: 0
wheat; PREEMERGENCE, Rate 200 g/ha
  Plant response rating (0 to 10 scale), Wheat: 2
wheat; Rate 200 g/ha, POSTEMERGENCE
  Plant response rating, Wheat: 6
velvetleaf; POSTEMERGENCE, Rate 50 g/ha
  Plant response rating, Velvetleaf: 10
velvetleaf; PREEMERGENCE, Rate 50 g/ha
  Plant response rating, Velvetleaf: 1
velvetleaf; PREEMERGENCE, Rate 200 g/ha
  Plant response rating (0 to 10 scale), Velvetleaf: 9
velvetleaf; Rate 200 g/ha, POSTEMERGENCE
  Plant response rating, Velvetleaf: 9
rice; POSTEMERGENCE, Rate 50 g/ha
  Plant response rating, Rice: 5
rice; PREEMERGENCE, Rate 50 g/ha
  Plant response rating, Rice: 0
rice; PREEMERGENCE, Rate 200 g/ha
  Plant response rating (0 to 10 scale), Rice: 0
rice; Rate 200 g/ha, POSTEMERGENCE
  Plant response rating, Rice: 6
rape; POSTEMERGENCE, Rate 50 g/ha
  Plant response rating, Rape: 6
rape; PREEMERGENCE, Rate 50 g/ha
  Plant response rating, Rape: 2
rape; PREEMERGENCE, Rate 200 g/ha
  Plant response rating (0 to 10 scale), Rape: 3
rape; Rate 200 g/ha, POSTEMERGENCE
  Plant response rating, Rape: 8
Wild buckwheat; POSTEMERGENCE, Rate 50 g/ha
  Plant response rating, Wild buckwheat: 10
Wild buckwheat; PREEMERGENCE, Rate 50 g/ha
  Plant response rating, Wild buckwheat: 0
Wild buckwheat; PREEMERGENCE, Rate 200 g/ha
  Plant response rating (0 to 10 scale), Wild buckwheat: 0
Wild buckwheat; Rate 200 g/ha, POSTEMERGENCE
  Plant response rating, Wild buckwheat: 10
corn; POSTEMERGENCE, Rate 50 g/ha
  Plant response rating, Corn: 3
corn; PREEMERGENCE, Rate 50 g/ha
  Plant response rating, Corn: 0
corn; PREEMERGENCE, Rate 200 g/ha
  Plant response rating (0 to 10 scale), Corn: 0
corn; Rate 200 g/ha, POSTEMERGENCE
  Plant response rating, Corn: 3
barnyardgrass; POSTEMERGENCE, Rate 50 g/ha
  Plant response rating, Barnyardgrass: 4
barnyardgrass; PREEMERGENCE, Rate 50 g/ha
  Plant response rating, Barnyardgrass: 0
barnyardgrass; PREEMERGENCE, Rate 200 g/ha
  Plant response rating (0 to 10 scale), Barnyardgrass: 1
barnyardgrass; Rate 200 g/ha, POSTEMERGENCE
  Plant response rating, Barnyardgrass: 6
Giant foxtail; POSTEMERGENCE, Rate 50 g/ha
  Plant response rating, Giant foxtail: 5
Giant foxtail; PREEMERGENCE, Rate 50 g/ha
  Plant response rating, Giant foxtail: 2
Giant foxtail; PREEMERGENCE, Rate 200 g/ha
  Plant response rating (0 to 10 scale), Giant foxtail: 5
Giant foxtail; Rate 200 g/ha, POSTEMERGENCE
  Plant response rating, Giant foxtail: 5
blackgrass; Rate 50 g/ha
  Plant response rating, Blackgrass: 3
blackgrass; PREEMERGENCE, Rate 200 g/ha
  Plant response rating (0 to 10 scale), Blackgrass: 2
blackgrass; Rate 200 g/ha
  Plant response rating, Blackgrass: 5
lambsquarters; POSTEMERGENCE, Rate 50 g/ha
  Plant response rating, Lambsquarter: 8
lambsquarters; PREEMERGENCE, Rate 50 g/ha
  Plant response rating, Lambsquarter: 9
lambsquarters; PREEMERGENCE, Rate 200 g/ha
  Plant response rating (0 to 10 scale), Lambsquarter: 10
lambsquarters; Rate 200 g/ha, POSTEMERGENCE
  Plant response rating, Lambsquarter: 8
chickweed; POSTEMERGENCE, Rate 50 g/ha
  Plant response rating, Chickweed: 2
chickweed; PREEMERGENCE, Rate 50 g/ha
  Plant response rating, Chickweed: 0
chickweed; PREEMERGENCE, Rate 200 g/ha
  Plant response rating (0 to 10 scale), Chickweed: 0
chickweed; Rate 200 g/ha, POSTEMERGENCE
  Plant response rating, Chickweed: 3
